Values joined by “and” are separate entries in the source; they are usually repeats but may differ in a detail not shown here. Equal entries are not always repeated.
Experiments:
[1] = test system: COLO 205; experiment: cell viability in human CRC cell line COLO 205; assay type: cell-based; conditions: for COLO 205 Cell viability (%): 4 d
Protocol: (§1) To generate KAP^2D cells, KAP organoids were isolated from Matrigel, fragmented by mechanical dissociation and plated without any extracellular matrix on common cell culture dishes. Phoenix-Eco packaging cells (CRL-3214), HCT-15 (CCL-225), HCT 116 (CCL-247), COLO 205 (CCL-222), LS 174T (CL-188), RKO (CRL-2577) and HT-29 (HTB-38) were obtained from the American Type Culture Collection. The cells were cultured at 37 °C and 7% CO2 with RPMI (KAP^2D cells) or DMEM (other cell lines), supplemented with 10% FBS and penicillin–streptomycin. KAP^2D cells were authenticated using PCR (Kras locus and Trp53 locus). Phoenix-Eco packaging cells and HCT-15, HCT 116, COLO 205, LS 174T, RKO and HT-29 cells were authenticated by the provider using short tandem repeat profiling. No commonly misidentified cell lines were used. Mycoplasma contamination was excluded by a PCR-based analysis.
(§2) For in vitro treatment studies, organoids were mechanically dissociated and digested using TrypLE supplemented with 100 µg ml^−1 DNaseI and 10.5 µM Y-27632 dihydrochloride (Invitrogen) at 37 °C. A total of 1,000–2,000 single cells were plated per well in white 96-well plates (Greiner) in culture medium containing 10% GFR Matrigel or Cultrex BME. The treatment with doxycycline (5 µg ml^−1), pharmacological inhibitors or corresponding volumes of DMSO was started 24 h after plating. Doxycycline was obtained from Sigma-Aldrich. […] Cell viability was measured by means of CellTiter-Glo 3D or CellTiter-Glo 2.0 reagent (Promega) according to the manufacturers’ instructions and the Infinite M Plex reader (Tecan, i-control version 3.9.1 software). Results were normalized to vehicle (DMSO) or to shNC. For cell-doubling assays, the cell number was quantified at the corresponding time points using Guava EasyCyte flow cytometer (Luminex, CytoSoft v5.2 software).

[2] = test system: PDO10; experiment: cell viability in patient-derived CRC organoids PDO10; assay type: cell-based, human
Protocol: as §2

[3] = test system: PDO9; experiment: cell viability in patient-derived CRC organoids PDO9; assay type: cell-based, human
Protocol: as §2

[4] = test system: KAP^2D cells; experiment: annexin V apoptosis analysis in KAP^2D cells; assay type: cell-based, mouse; conditions: Fig. 5a
Protocol: Apoptosis was analyzed with the FITC annexin V apoptosis detection kit (Biolegend). Both measurements were performed with FACS Canto II (BD) and physical parameters were used to exclude cell debris and cell doublets.

[5] = test system: PDO13; experiment: cell viability in patient-derived CRC organoids PDO13; assay type: cell-based, human
Protocol: as §2

[6] = test system: HCT 116; experiment: cell viability in human CRC cell line HCT 116; assay type: cell-based; conditions: for HCT 116 Cell viability (%): 4 d
Protocol: as §1, §2

[7] = test system: HT-29; experiment: cell viability in human CRC cell line HT-29; assay type: cell-based; conditions: ED Fig. 9h, replicates
Protocol: as §1, §2

## O=C1c2ccc(Nc3ccc(F)cc3F)cc2CCc2ccc(OC[C@H](O)CO)cc21 [SKL, skepinone-L, reference compound]
[1]; 0.0137 µM
  COLO 205 Cell viability (%): 96.45% and 96.38% and 97.30% and 129.19% and 99.27% and 94.84%
[1]; 0.0412 µM
  COLO 205 Cell viability (%): 127.57% and 100.82% and 92.20% and 93.68% and 91.56% and 87.30%
[1]; 0.1235 µM
  COLO 205 Cell viability (%): 118.98% and 94.94% and 87.73% and 92.65% and 90.17% and 91.06%
[1]; 0.3704 µM
  COLO 205 Cell viability (%): 128.00% and 91.92% and 96.35% and 88.32% and 91.46% and 92.15%
[1]; 1.1111 µM
  COLO 205 Cell viability (%): 104.82% and 92.26% and 92.51% and 87.03% and 84.46% and 82.14%
[1]; 3.3333 µM
  COLO 205 Cell viability (%): 118.94% and 101.69% and 108.96% and 89.84% and 86.56% and 82.40%
[1]; 10.0000 µM
  COLO 205 Cell viability (%): 88.40% and 89.99% and 81.09% and 75.75% and 75.52%
[1]; Homo sapiens, COLO 205, 96 h, read-out: COLO 205 Cell viability (%), 10.0000 µM, 4 d
  viability at 10 µM: 86.3%
[2]; Homo sapiens, 96 h, read-out: Cell viability (%), PDO10, 0.5 µM, 4 d
  viability at 0.5 µM: 90.5%
[2]; Homo sapiens, 96 h, read-out: Cell viability (%), PDO10, 1 µM, 4 days
  viability at 1 µM: 94.7%
[2]; PDO10, 0.5 µM, 4 d, 0.5 µM
  Cell viability (%): 87.26% and 98.21%
[2]; PDO10, 1 µM, 4 days, 1 µM
  Cell viability (%): 92.67% and 102.90%
[3]; Homo sapiens, 96 h, read-out: Cell viability (%), PDO9, 0.5 µM, 4 d
  viability at 0.5 µM: 92%
[3]; PDO9, 0.5 µM, 4 d, 0.5 µM
  Cell viability (%): 97.83% and 101.86%
[3]; PDO9, 1 µM, 4 days, 1 µM
  Cell viability (%): 97.80% and 79.73% and 102.56%
[4]; 1 d of treatment
  Annexin V+ cells: 5.21% and 5.26% and 4.63% and 7.96% and 7.76% and 8.93%
[4]; 2 d of treatment
  Annexin V+ cells: 9.26% and 10.60% and 6.13% and 6.98% and 6.69% and 8.97%
[4]; 3 d of treatment
  Annexin V+ cells: 12.30% and 9.65% and 9.21% and 7.99% and 8.10%
[4]; 4 d of treatment
  Annexin V+ cells: 14.90% and 13.30% and 12.30% and 11.90% and 13.00% and 16.60%
[5]; Homo sapiens, 96 h, read-out: Cell viability (%), PDO13, 0.5 µM, 4 d
  viability at 0.5 µM: 90.8%
[5]; Homo sapiens, 96 h, read-out: Cell viability (%), PDO13, 1 µM, 4 days
  viability at 1 µM: 85.6%
[5]; PDO13, 0.5 µM, 4 d, 0.5 µM
  Cell viability (%): 102.60% and 92.37%
[5]; PDO13, 1 µM, 4 days, 1 µM
  Cell viability (%): 87.89% and 85.59%
[6]; 0.0137 µM
  HCT 116 Cell viability (%): 82.53% and 93.66% and 88.98% and 84.63%
[6]; 0.0412 µM
  HCT 116 Cell viability (%): 87.30% and 84.90% and 78.78% and 77.22% and 83.29%
[6]; 0.1235 µM
  HCT 116 Cell viability (%): 92.74% and 88.80% and 81.62% and 82.67% and 87.37%
[6]; 0.3704 µM
  HCT 116 Cell viability (%): 94.27% and 95.66% and 82.63% and 82.17%
[6]; 1.1111 µM
  HCT 116 Cell viability (%): 100.75% and 99.43% and 96.05% and 80.80% and 79.61% and 91.28%
[6]; 3.3333 µM
  HCT 116 Cell viability (%): 95.32% and 96.31% and 81.21% and 79.37% and 87.78%
[6]; 10.0000 µM
  HCT 116 Cell viability (%): 90.67% and 87.54% and 88.22% and 75.98% and 77.27% and 105.12%
[6]; Homo sapiens, HCT-116, 96 h, read-out: HCT 116 Cell viability (%), 0.0137 µM, 4 d
  viability at 0.0137 µM: 85.5%
[6]; Homo sapiens, HCT-116, 96 h, read-out: HCT 116 Cell viability (%), 0.0412 µM, 4 d
  viability at 0.0412 µM: 90.7%
[6]; Homo sapiens, HCT-116, 96 h, read-out: HCT 116 Cell viability (%), 0.1235 µM, 4 d
  viability at 0.1235 µM: 93.8%
[6]; Homo sapiens, HCT-116, 96 h, read-out: HCT 116 Cell viability (%), 0.3704 µM, 4 d
  viability at 0.3704 µM: 94.8%
[6]; Homo sapiens, HCT-116, 96 h, read-out: HCT 116 Cell viability (%), 3.3333 µM, 4 d
  viability at 3.3333 µM: 96.3%
[7]; 0.0137 µM, Repetition
  HT-29 Cell viability (%): 103.68% and 103.86%
[7]; 0.0137 µM, first experiment
  HT-29 Cell viability (%): 94.50% and 93.43%
[7]; 0.0412 µM, Repetition
  HT-29 Cell viability (%): 99.67% and 99.85%
[7]; 0.0412 µM, first experiment
  HT-29 Cell viability (%): 92.23% and 89.57%
[7]; 0.1235 µM, Repetition
  HT-29 Cell viability (%): 103.93% and 105.17%
[7]; 0.1235 µM, first experiment
  HT-29 Cell viability (%): 89.62% and 88.59%
[7]; 0.3704 µM, Repetition
  HT-29 Cell viability (%): 102.88% and 105.26%
[7]; 0.3704 µM, first experiment
  HT-29 Cell viability (%): 92.54% and 90.50%
[7]; 1.1111 µM, Repetition
  HT-29 Cell viability (%): 104.46% and 106.93%
[7]; 1.1111 µM, first experiment
  HT-29 Cell viability (%): 97.34% and 97.79%
[7]; 3.3333 µM, Repetition
  HT-29 Cell viability (%): 100.17% and 95.98%

— PMC11864979, “First-in-class ultralong-target-residence-time p38α inhibitors as a mitosis-targeted therapy for colorectal cancer” (Nature Cancer, 2025)
